Columns and labels:
HSC-like cells = assay: HSC-like cell subculture with metabolic regulators, flow cytometry; assay type: cell-based, human; conditions: day 3, UK5099 10 μM
From the text: The RB9-CB1 human iPSC line (Woods, N.-B. et al. Brief report: efficient generation of hematopoietic precursors and progenitors from human pluripotent stem cell lines. Stem Cells 29, 1158-1164 (2011)) was co-cultured with mouse embryonic fibroblasts (MEFs, Millipore), passaged every six days and processed to form embryoid bodies (EBs) as described previously (Guibentif, C. et al. Single-Cell Analysis Identifies Distinct Stages of Human Endothelial to-Hematopoietic Transition. Cell Reports 19, 10-19 (2017)). The differentiation protocol used in this study was previously described (Ditadi, A. & Sturgeon, C. M. Directed differentiation of definitive hemogenic endothelium and hematopoietic progenitors from human pluripotent stem cells. Methods 101, 65-72 (2016)), however, small modifications were made to induce both primitive and definitive hematopoiesis, as indicated below and in FIG. 6, a. Newly-formed EBs were first kept in SFD medium supplemented with 1 ng/ml Activin A (on days 0-2) and 3 μM CHIR99021 (on day 2 only). At day 3, media was switched to “Day 3-SP34” medium supplemented with 1 ng/ml Activin A (on day 3 only) and 3 μM CHIR99021 (on day 3 only) until day 6. On day 6, media was replaced by “Day 6-SP34” medium, until day 8. […]

LT-HSCs = assay: CFU assay of LT-HSCs sorted from fetal livers of treated embryos; assay type: in vivo, mice; conditions: DCA-treated embryos vs control and UK5099
Experimental: For fetal liver analysis, pregnant female C57Bl/6xB6.SJL mice were injected intraperitoneally at E9.5 with UK5099 (4 mg/kg) or DCA (200 mg/kg) or PBS (control). Embryos were harvested at E14.5 and individually weighed and processed. Fetal livers were dissected and homogenised in 800 μL ice cold PBS supplemented with 2% fetal bovine serum (FBS) and FL cells were washed in PBS with 2%/FBS. For the differentiated lineage panel, cells were stained with B220 and CD19 (B-cell markers)-PE, CD3e-APC, Ter119-PeCy7 and CD71-FITC and analyzed on a BD FACSARIA III. For the HSC panel, samples were first treated with ammonium chloride solution (STEMCELL Technologies, France) to lyse red blood cells, washed twice in ice cold PBS with 2% FBS, stained with CD3e, B220, Ter119, Gr1 (Lineage)-PeCy5, c-Kit-Efluor780, Sca1-BV421, CD48-FITC, CD150-BV605 and 7-AAD (for dead cell exclusion) and analyzed on a BD FACSARIA III. […] For plating of CFU assays, 100 LT-HSCs were sorted (gating strategy shown in FIG. 11, e) and resuspended in 3.0 mL Methocult M3434 (STEMCELL Technologies, France). Each mixture was divided onto 2 wells of a non-tissue culture treated 6-well plate. Following a 14-day incubation in a humidified incubator at 37° C., 5% CO2, 20% O2, colonies were morphologically distinguished and scored. […] Cells were stained with anti-cKit and anti-CD45 antibodies and analyzed on a BD LSRFortessa. […]

N#CC(=Cc1cn(-c2ccccc2)c2ccccc12)C(=O)O [UK5099, 2-Cyano-3-(1-phenyl-1H-indol-3-yl)-2-propenoic acid]
CD43+GPA+ cell output (HSC-like cells): absence of bias

O=C(O)C(Cl)Cl [DCA, dichloroacetate]
decrease in the BFU-E to CFU-GM ratio (LT-HSCs): 80%

Reference: patent US20250129334A1, “LINEAGE SPECIFICATION DURING STEM CELL TRANSITION” (Amniotics AB, priority 2021, published 2025)
